# Experimental data reported in patent EP4458830A1, “TRICYCLIC COMPOUND, METHOD FOR PREPARING SAME, AND USE THEREOF” (Sichuan Kelun-Biotech Biopharmaceutical Co., Ltd., priority 2021, dated 2023).
# Biological target: T1, human TLR7 (Homo sapiens, UniProt Q9NYK1)
# T1 construct: host or cells: HEK-Blue hTLR7 cells (HEK293-derived reporter line; that the line is stably transfected with the human TLR7 gene is own knowledge of the vendor's product)
# T1 sequence (Q9NYK1 27-1049): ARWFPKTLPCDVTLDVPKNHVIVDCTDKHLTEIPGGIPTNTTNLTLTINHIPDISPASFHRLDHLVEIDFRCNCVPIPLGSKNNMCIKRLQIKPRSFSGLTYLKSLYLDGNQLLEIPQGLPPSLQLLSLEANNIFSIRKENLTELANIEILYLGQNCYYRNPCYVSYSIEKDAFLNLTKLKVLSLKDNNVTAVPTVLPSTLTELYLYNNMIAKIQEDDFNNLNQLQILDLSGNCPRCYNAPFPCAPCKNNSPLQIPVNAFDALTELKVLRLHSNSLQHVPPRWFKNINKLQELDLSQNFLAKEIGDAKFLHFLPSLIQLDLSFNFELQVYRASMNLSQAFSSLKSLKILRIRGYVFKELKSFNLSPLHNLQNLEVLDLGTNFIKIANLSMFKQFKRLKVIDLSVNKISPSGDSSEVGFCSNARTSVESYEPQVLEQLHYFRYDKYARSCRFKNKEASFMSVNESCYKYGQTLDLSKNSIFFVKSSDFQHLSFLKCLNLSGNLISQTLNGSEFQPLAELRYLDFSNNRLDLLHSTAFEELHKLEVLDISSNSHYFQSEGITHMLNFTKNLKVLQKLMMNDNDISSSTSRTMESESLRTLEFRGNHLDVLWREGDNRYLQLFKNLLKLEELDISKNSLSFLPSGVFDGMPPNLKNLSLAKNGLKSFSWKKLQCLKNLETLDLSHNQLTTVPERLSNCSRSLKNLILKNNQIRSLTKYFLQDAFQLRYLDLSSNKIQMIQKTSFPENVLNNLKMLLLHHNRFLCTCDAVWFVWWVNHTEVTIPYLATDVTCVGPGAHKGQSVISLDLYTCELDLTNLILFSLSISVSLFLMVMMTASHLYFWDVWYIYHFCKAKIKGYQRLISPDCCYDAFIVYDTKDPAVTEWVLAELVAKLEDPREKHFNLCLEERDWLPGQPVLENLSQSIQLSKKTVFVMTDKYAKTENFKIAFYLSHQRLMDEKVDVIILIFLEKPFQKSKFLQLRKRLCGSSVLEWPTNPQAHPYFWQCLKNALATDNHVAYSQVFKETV
# Test: Agonistic activity of compounds on HEK-Blue hTLR7 cells (QUANTI-Blue reporter, OD620)
# Assay type: cell-based
# Settings: for EC50 / Emax: HEK-Blue hTLR7 cells; for EC50: 20 h incubation; for Emax: OD620 at which the activation effect reached the maximum; for activation effect on human TLR7: summary in words
# Experimental: • 1. HEK-Blue hTLR7 cells (Invivogen) were cultured in DMEM medium (Hyclone) containing 10% FBS heat-inactivated fetal bovine serum (Corning). On the day of detection, the cell state was observed under a microscope, the cells were collected and resuspended, and the cell concentration was adjusted after counting, 50 µL per well, the total amount of cells was 2×10^4, and the cells were inoculated in a 96-well plate. • 2. After the cells adhered to the wall overnight, 50 µL of the test compound at different concentrations was added into the well plate, so that the final concentrations were 100 µM, 33.3 µM, 11.11 µM, 3.70 µM, 1.23 µM, 0.41 µM, 0.14 µM, 0.05 µM, 0 µM, and the final concentration of DMSO was 1%. The compound was incubated with the cells in a 37°C, 5% CO2 incubator for 20 h. • 3. After the incubation, observation under microscope was performed to determine the maximum signal well, the states of the cells with the highest and lowest concentrations of the compound, and whether the compound will crystalize at high concentration. 10 µL of cell culture supernatant was taken and transferred to a new 96-well transparent plate, 90 µL of QUANTI-Blue (Invivogen) detection reagent was added to each well, and incubated at 37°C for 3 h, and OD620 was read with a multifunctional microplate reader (BMG LABTECH). • 4. EC50 was calculated by fitting with Graphpad Prism software log(agonist) vs. response - Variable slope, and Emax was the OD620 at which the activation effect of the test compound reached the maximum.
Compound,EC50 [nM],Emax [OD620],activation effect on human TLR7
"CCCCc1nc2c(N)nc3cc(C4=CCN(C)CC4)sc3c2[nH]1 [Compound 8, 2-butyl-7-(1-methyl-1,2,3,6-tetrahydropyridin-4-yl)-1H-imidazo [4,5-d]thieno[3,2-b]pyridine-4-amine]",2500,0.56,strong activation effect
"CCCCc1nc2c(N)nc3cc(C)sc3c2n1CC1CCN(CCOCCOCCN)CC1 [Compound 15, 1-((1-(2-(2-(2-aminoethoxy)ethoxy)ethyl)piperidin-4-yl)methyl)-2-butyl-7-methyl-1H-imidazo[4,5-d]thieno[3,2-b]pyridine-4-amine]",1420,2.40,strong activation effect
"CCCCc1nc2c(N)nc3cc(C)sc3c2n1CC1CCN(CCOCCOCCOCCOCCOCCOCCOC)CC1 [Compound 16, 1-((1-(2,5,8,11,14,17,20-heptaoxadocosan-22-yl)piperidin-4-yl)methyl)-2-butyl-7-methyl-1H-imidazo[4,5-d]thieno[3,2-b]pyridine-4-amine]",1690,2.18,strong activation effect
"CCCCc1nc2c(N)nc3ccsc3c2n1CC1CCNCC1 [Compound 25, 2-butyl-1-(piperidin-4-ylmethyl)-1H-imidazo[4,5-d]thieno[3,2-b] pyridine-4-amine]",140,2.08,strong activation effect
"CCCCc1nc2c(N)nc3cc(C)sc3c2n1CC1CCOCC1 [Compound 26, 2-butyl-7-methyl-1-((tetrahydro-2H-pyran-4-yl)methyl)-1H-imidazo[4,5-d]thieno[3,2-b]pyridine-4-amine]",50,1.78,strong activation effect
"CCCCc1nc2c(N)nc3cc(C4CCN(C)CC4)sc3c2n1C [Compound 32, 2-butyl-1-methyl-7-(1-methylpiperidin-4-yl)-1H-imidazo[4,5-d] thieno[3,2-b]pyridine-4-amine]",1260,0.91,strong activation effect
"CCCCc1nc2c(N)nc3cc(C4CCN(C)CC4)sc3c2n1CC1CCOCC1 [Compound 34, 2-butyl-7-(1-methylpiperidin-4-yl)-1-((tetrahydro-2H-pyran-4-yl)methyl)-1H-imidazo[4,5-d]thieno[3,2-b]pyridine-4-amine]",83,1.21,strong activation effect

# More lines, now with the values ahead:
EC50 [nM],Emax [OD620],activation effect on human TLR7,Compound
2410,1.74,strong activation effect,"COCCc1nc2c(N)nc3ccsc3c2n1CCCCN [Compound 4, 1-(4-aminobutyl)-2-(2-methoxyethyl)-1H-imidazo[4,5-d]thieno[3,2-b]pyridine-4-amine]"
3250,1.46,strong activation effect,"CCOCc1nc2c(N)nc3ccsc3c2n1CCCCN [Compound 5, 1-(4-aminobutyl)-2-(2-ethoxymethyl)-1H-imidazo[4,5-d] thieno[3,2-b]pyridine-4-amine]"
1160,2.23,strong activation effect,"CCCCc1nc2c(N)nc3cc(C)sc3c2n1CC1CCN(C(=O)CCOCCOCCN)CC1 [Compound 17, 1-(4-((4-amino-2-butyl-7-methyl-1H-imidazo[4,5-d]thieno[3,2-b]pyridin-1-yl)methyl)piperidin-1-yl)-3-(2-(2-aminoethoxy)ethoxy)propan-1-one]"
200,1.39,strong activation effect,"CCCCc1nc2c(N)nc3cc(C)sc3c2n1CC1CCN(C)CC1 [Compound 28, 2-butyl-7-methyl-1-((1-methylpiperidin-4-yl)methyl)-1H-imidazo[4,5-d]thieno[3,2-b]pyridine-4-amine]"
